Data taken from the OPERA property sets (Mansouri et al. 2018).

| SMILES | ready biodegradability | boiling point [°C] | log10 Henry constant (atm·m³/mol) | log10 vapour pressure (mmHg) | melting point [°C] | log10 Koc (L/kg) | log10 biodegradation half-life (days) | log10 Koa |
| --- | --- | --- | --- | --- | --- | --- | --- | --- |
| C#CCCOC1CCCCO1 (configuration not stated) | readily biodegradable |  |  |  |  |  |  |  |
| FC(F)Cl | not readily biodegradable | -40.7 | -1.39 | 3.86 | -157 |  |  |  |
| c1ccc(CCCCc2ccccc2)cc1 |  | 317 |  |  | 52.5 |  |  |  |
| Cc1cc(Cl)cc([N+](=O)[O-])c1 |  |  |  |  | 61 |  |  |  |
| O=C(Cl)C(c1ccccc1)c1ccccc1 |  |  |  |  | 56.5 |  |  |  |
| CCCCCCC(=O)CCC |  | 206 |  |  | -9 |  |  |  |
| c1ccc2c(c1)c(Cc1cn(CN3CCCCC3)c3ccccc13)cn2CN1CCCCC1 |  |  |  |  | 138 |  |  |  |
| CCCCN1CCCCC1 |  | 176 |  |  |  |  |  |  |
| CCOP(=O)(N=C1SCS1)OCC |  |  |  | -5.19 |  |  |  |  |
| CCCCCCCCCCOCCCCCCCCCC | readily biodegradable |  |  |  |  |  |  |  |
| CCOCCO | readily biodegradable | 135 | -6.33 | 0.725 | -70 |  |  |  |
| FC(F)(F)C(F)(F)C(F)(F)C(F)(F)F |  | -1.9 |  | 3.3 | -128 |  |  |  |
| COc1ccc(C(=O)c2coc(S(N)(=O)=O)c2)cc1 |  |  |  |  | 181 |  |  |  |
| CCCCCCCCCCCCCCCCCO | readily biodegradable | 333 |  |  | 53.8 |  |  |  |
| CNC(=O)ON=C(SC)C(=O)N(C)C |  |  |  |  | 101 | 1 |  |  |
| Cc1c2ccccc2c(C)c2ccccc12 |  |  |  |  | 183 |  |  |  |
| CC(C)C(O)C(C)(C)CO (configuration not stated) | readily biodegradable | 232 |  | -2.35 | 51.5 |  |  |  |
| O=[N+]([O-])CCl |  | 122 |  |  |  |  |  |  |
| OCc1c[nH]c2ccccc12 |  |  |  |  | 97.5 |  |  |  |
| C[Si](C)(Cl)O[Si](C)(C)Cl |  | 138 |  |  | -37.5 |  |  |  |

| SMILES | ready biodegradability | boiling point [°C] | log10 Henry constant (atm·m³/mol) | log10 vapour pressure (mmHg) | melting point [°C] | log10 Koc (L/kg) | log10 biodegradation half-life (days) | log10 Koa |
| --- | --- | --- | --- | --- | --- | --- | --- | --- |
| c1ccc(C2CO2)cc1 (configuration not stated) | readily biodegradable | 194 |  | -0.523 | -35.6 |  |  |  |
| Cc1cc(O)c(C2CC3CCC2(C)C3(C)C)cc1C (configuration not stated) |  |  |  |  | 95 |  |  |  |
| CN1C(CCl)Nc2cc(Cl)c(S(N)(=O)=O)cc2S1(=O)=O (configuration not stated) |  |  |  |  | 225 |  |  |  |
| O=c1[nH]cccc1O | not readily biodegradable |  |  |  |  |  |  |  |
| CCCCCC1OC1CC1OC1CCCCCCCC(=O)OCC(COC(=O)CCCCCCCC1OC1CC1OC1CCCCC)OC(=O)CCCCCCCC1OC1CC1OC1CCCCC (configuration not stated) | readily biodegradable |  |  |  |  |  |  |  |
| FC(F)(F)c1ccc(Cl)cc1 |  | 138 |  | 0.882 | -33 |  |  |  |
| O=Cc1cc(O)ccc1[N+](=O)[O-] |  |  |  |  | 167 |  |  |  |
| CCOC(=O)C(NC(C)=O)C(=O)OCC |  |  |  |  | 96.3 |  |  |  |
| CC(C)CO[N+](=O)[O-] |  | 123 | -2.65 | 0.919 |  |  |  |  |
| c1ccc(-c2ccncn2)cc1 |  |  |  |  | 56 |  |  |  |
| CCN(C(=O)n1nnn(-c2ccccc2Cl)c1=O)C1CCCCC1 |  |  |  | -9.43 | 79 |  |  |  |
| CC=C1CCCC1 |  | 115 |  |  | -130 |  |  |  |
| CC(C)[C@@H]1CCCCC1=O |  |  |  |  | 72.5 |  |  |  |
| C[C@]12CCC(=O)C=C1CC[C@@H]1[C@@H]2C(=O)C[C@@]2(C)[C@H]1CC[C@]2(O)C(=O)CO |  |  |  |  | 222 |  |  |  |
| C=C(C)[C@@H]1CC[C@@H](C)[C@@H](O)C1 |  | 224 |  |  |  |  |  |  |
| CC1(C)C2CCC1(C)C(Cl)C2 (configuration not stated) |  | 208 |  |  | 132 |  |  |  |
| N#Cc1cc(Cl)ccc1N |  |  |  |  | 97 |  |  |  |
| CCCCC(C)CCCC |  | 165 |  |  | -87.7 |  |  |  |
| C[C@H](CCC(=O)O)[C@H]1CC[C@H]2[C@@H]3[C@H](O)C[C@@H]4C[C@H](O)CC[C@]4(C)[C@H]3C[C@H](O)[C@]12C |  |  |  |  | 198 |  |  |  |
| CCCCCCCCCCCCCCCC1CCCCC1 |  | 373 |  | -6.46 | 29 |  |  |  |

| SMILES | ready biodegradability | boiling point [°C] | log10 Henry constant (atm·m³/mol) | log10 vapour pressure (mmHg) | melting point [°C] | log10 Koc (L/kg) | log10 biodegradation half-life (days) | log10 Koa |
| --- | --- | --- | --- | --- | --- | --- | --- | --- |
| CCN(CC)C(=O)c1cccc(C)c1 | not readily biodegradable | 290 |  | -2.7 | -45 |  |  |  |
| CC(C)COC(=O)CCCCC(=O)OCC(C)C |  | 279 |  |  | -20 |  |  |  |
| Oc1ccc(O)cc1 | readily biodegradable | 287 |  | -4.62 | 172 |  |  |  |
| O=C(CCl)c1ccc(Cl)cc1 |  | 270 |  |  | 102 |  |  |  |
| CCCC(C)(C)Br |  | 142 |  |  |  |  |  |  |
| c1ccc2c(c1)cc1c3ccccc3c3cccc4ccc2c1c43 |  |  |  |  | 234 |  |  |  |
| CN(C)P(=O)(N(C)C)N(C)C | not readily biodegradable | 232 |  | -1.34 | 7.2 |  |  |  |
| CCC(C)CC(C)(C)C (configuration not stated) |  | 126 |  | 1.2 | -120 |  |  |  |
| CCCCCCCCCCCCc1ccccc1O | not readily biodegradable |  |  |  |  |  |  |  |
| N#CCCc1ccccc1 |  | 261 |  |  | -1 |  |  |  |
| CCCCCCO | readily biodegradable | 158 | -4.77 | -0.0325 | -44.6 |  |  |  |
| Clc1ccccc1-c1ccc(Cl)c(Cl)c1Cl |  |  | -3.85 |  |  |  |  |  |
| FC(F)(F)CC(F)(F)F |  | -1.1 |  |  | -94.2 |  |  |  |
| c1ccc2c(c1)-c1cccc3c1c-2cc1ccccc13 |  |  | -6.18 | -6.3 | 168 |  | 2.45 |  |
| O=P(O)(O)CP(=O)(O)O |  |  |  |  | 200 |  |  |  |
| C=CCCCCCCC | not readily biodegradable | 147 |  | 0.732 | -81.3 |  |  | 3.83 |
| CNc1cnn(-c2cccc(C(F)(F)F)c2)c(=O)c1Cl |  |  |  | -7.54 | 184 | 3.28 |  |  |
| COc1ccco1 |  | 110 |  |  |  |  |  |  |
| COCc1ccco1 |  | 132 |  |  |  |  |  |  |
| CC1CCC1 |  | 36.3 |  | 3.17 | -162 |  |  |  |
